Results from patent US4613355A, “Antibiotic having herbicidal activity” (Satoshi Omura, priority 1983, dated 1986).
Structures can show the parent of a compound that is named as a salt.

Key:
Assay type in all cases: in vivo
Digitaria adscendens = assay: Pre-emergence test (Example 6); settings: 10 days
Experimental: Upland soil was put in a pot of 10 cm diameter and the seeds of Digitaria adscendens were sown in the soil surface at a depth of 1 cm. After compacting the soil surface gently, the soil was sprayed evenly with solutions of Phosalacine sodium salt dissolved at different concentrations in water (each 5 ml). 10 days later, the number of emerged seedlings was counted and the percentage inhibition of emergence was evaluated by comparison with untreated plots. For comparison, a similar test was carried out using glyphosate (monosodium salt) instead of Phosalacine salt. The results shown in the following Table indicate that the pre-emergence effect of Phosalacine was better than that of glyphosate.

Rumex obtusifolius = assay: Foliage treatment with different salts (Example 11); design: key: 0 indicates no effect; 5 indicates complete kill; settings: Rumex obtusifolius (Plant No. 14), 1000 liter per hectare
Experimental: Aqueous solutions containing different salts of Phosalacine at different concentrations as active ingredients and 0.1% of octylphenylpolyoxy ethanol as surfactant were applied at a rate of 1000 liter per hectare to Rumex obtusifolius (Plant No. 14) at a certain stage of growth. 21 days after foliage treatment, damage to the plant was visually assessed on a scale of 0 to 5 as hereinbefore described. The salts used were prepared by the methods described in the reference mentioned above.

Eichhornia crassipes = assay: Activity against aquatic plants (Example 12); settings: 0.1%, 1500 liter per hectare, 4 weeks after the treatment
Experimental: An aqueous solution containing 0.1% of Phosalacine (monosodium salt) and 0.1% of octylphenylpolyoxyethanol was applied to Eichhornia crassipes at a certain stage of growth, at a rate of 1500 liter per hectare as a foliage treatment. Damage to the plants was assessed visually 4 weeks after the treatment.

Killifishes (Medaka) = assay: Acute toxicity to fish, survival ratio (Example 13); settings: killifish
Experimental: Killifishes (Japanese name, Medaka), were obtained from a market and maintained in a water bath at 25±2° C. for a week. Then the fishes (each group consisting of 10 fishes) were placed in water baths containing the test compounds at given concentrations as shown in the following Table. 24 and 48 hours after this, the survival ratio (%) of each group was visually counted to assess the acute toxity.

For CC(C)C[C@H](NC(=O)[C@H](C)NC(=O)[C@@H](N)CCP(C)(=O)O)C(=O)O [Phosalacine (Na salt)], the “Percent inhibition of emergence” value (Digitaria adscendens; 500 g/ha) was 80%, the “Percent inhibition of emergence” value (Digitaria adscendens; 1000 g/ha) was 100% and the “Percent inhibition of emergence” value (Digitaria adscendens; 2500 g/ha) was 100%. The “Damage to plants after 21 days, scale 0 to 5” value (Rumex obtusifolius; 0.05%) was 3, the “Damage to plants after 21 days, scale 0 to 5” value (Rumex obtusifolius; 0.1%) was 5 and the “Damage to the plants, assessed visually” value (Eichhornia crassipes) was “completely killed”. For the same compound, the “Survival ratio (%)” value (Killifishes (Medaka); 20 ppm, 24 hours) was 100%, the “Survival ratio (%)” value (Killifishes (Medaka); 20 ppm, 48 hours) was 100% and the “Survival ratio (%)” value (Killifishes (Medaka); 100 ppm, 24 hours) was 100%. For the same compound, the “Survival ratio (%)” value (Killifishes (Medaka); 100 ppm, 48 hours) was 50%, the “Survival ratio (%)” value (Killifishes (Medaka); 500 ppm, 24 hours) was 0% and the “Survival ratio (%)” value (Killifishes (Medaka); 500 ppm, 48 hours) was 0%.
